Results reported in PMC6271384, “Synthesis, Cytotoxicity and Mechanistic Evaluation of 4-Oxoquinoline-3-carboxamide Derivatives: Finding New Potential Anticancer Drugs” (Molecules, 2014).

Tests used:
[1] = tested on: ACP-03 (ACP03) gastric cancer cell line; assay: MTT cytotoxicity, gastric cancer cell line; assay type: cell-based; settings: for IC50: gastric cancer cell line, MTT, 72 h, 95% confidence interval in brackets
Procedure: (§1) The 4-oxoquinoline-3-carboxamide derivatives (0.3125–20 μM) were tested for cytotoxic activity against three cancer cell lines: HCT-116 (colon), ACP03 (gastric), and MDAMB-231 (breast) (Table 1). Active derivatives were also tested against a normal fibroblast cell line (MRC-5). All cell lines were maintained in DMEM medium supplemented with 10% fetal bovine serum, 2 mM glutamine, 100 U/mL penicillin, and 100 µg/mL streptomycin and were incubated at 37 °C with 5% CO2. Each derivative was dissolved with DMSO to a concentration of 10 mM. The final concentration of DMSO in the culture medium was kept at a constant value below 0.1% (v/v). The derivatives (0.3125–20 µM) were incubated with the cells for 72 h. The negative control contained the same amount of DMSO ([…]). Cell viability was determined by the reduction of the yellow dye 3-(4,5-dimethyl-2-thiazol)-2,5-diphenyl-2H-tetrazolium bromide (MTT) to a blue formazan product as described by Mosmann.
(§2) In the MTT experiments, the results were analyzed according to their means and standard errors in the program GraphPad Prism. Each sample was analyzed in triplicate.

[2] = tested on: HCT-116 colon cancer cell line; assay: MTT cytotoxicity, colon cancer cell line; assay type: cell-based; settings: 95% confidence interval in brackets
Procedure: as §1, §2

[3] = tested on: MDAMB231 breast cancer cell line; assay: MTT cytotoxicity, breast cancer cell line; assay type: cell-based; settings: 95% confidence interval in brackets
Procedure: as §1, §2

[4] = tested on: MRC5 normal human fetal lung fibroblast; assay: MTT cytotoxicity, normal fibroblast cell line; assay type: cell-based; settings: for IC50: normal human fetal lung fibroblast, MTT, 72 h, 95% confidence interval in brackets; for cytotoxicity in normal fibroblasts: at 20 µM, MRC-5
Procedure: as §1, §2

[5] = Hemolytic assay (cell membrane disruption); assay type: cell-based, mouse; settings: 2% mouse erythrocyte suspension, 1 h, room temperature; read-out: Hemolysis (EC50)
Procedure: (§3) The assay was performed in 96-well plates using a 2% mouse erythrocyte suspension in 0.85% NaCl containing 10 mM CaCl2. Derivatives 10–18, diluted as described above, were tested at 250 µg/mL. After incubation at room temperature for 1 h and centrifugation, the supernatant was removed, and the liberated hemoglobin was measured spectrophotometrically at 540 nm. DMSO was used as a negative control, and Triton X-100 (1%) was used as a positive control.

mouse erythrocytes = assay: Hemolytic assay (cell membrane disruption); assay type: cell-based; settings: result in words
Procedure: as §3

[6] = target: T1, Human topoisomerase IIα (TopoIIα) (Homo sapiens, UniProt P11388); assay: DNA relaxation assay (Topoisomerase II Drug Screening Kit); assay type: biochemical; settings: 100 µM compound, 10 U enzyme, 37 °C, 30 min, agarose gel
T1 construct: purchased TopoGEN, Inc. (Columbus, OH, USA)
T1 sequence (P11388 whole entry): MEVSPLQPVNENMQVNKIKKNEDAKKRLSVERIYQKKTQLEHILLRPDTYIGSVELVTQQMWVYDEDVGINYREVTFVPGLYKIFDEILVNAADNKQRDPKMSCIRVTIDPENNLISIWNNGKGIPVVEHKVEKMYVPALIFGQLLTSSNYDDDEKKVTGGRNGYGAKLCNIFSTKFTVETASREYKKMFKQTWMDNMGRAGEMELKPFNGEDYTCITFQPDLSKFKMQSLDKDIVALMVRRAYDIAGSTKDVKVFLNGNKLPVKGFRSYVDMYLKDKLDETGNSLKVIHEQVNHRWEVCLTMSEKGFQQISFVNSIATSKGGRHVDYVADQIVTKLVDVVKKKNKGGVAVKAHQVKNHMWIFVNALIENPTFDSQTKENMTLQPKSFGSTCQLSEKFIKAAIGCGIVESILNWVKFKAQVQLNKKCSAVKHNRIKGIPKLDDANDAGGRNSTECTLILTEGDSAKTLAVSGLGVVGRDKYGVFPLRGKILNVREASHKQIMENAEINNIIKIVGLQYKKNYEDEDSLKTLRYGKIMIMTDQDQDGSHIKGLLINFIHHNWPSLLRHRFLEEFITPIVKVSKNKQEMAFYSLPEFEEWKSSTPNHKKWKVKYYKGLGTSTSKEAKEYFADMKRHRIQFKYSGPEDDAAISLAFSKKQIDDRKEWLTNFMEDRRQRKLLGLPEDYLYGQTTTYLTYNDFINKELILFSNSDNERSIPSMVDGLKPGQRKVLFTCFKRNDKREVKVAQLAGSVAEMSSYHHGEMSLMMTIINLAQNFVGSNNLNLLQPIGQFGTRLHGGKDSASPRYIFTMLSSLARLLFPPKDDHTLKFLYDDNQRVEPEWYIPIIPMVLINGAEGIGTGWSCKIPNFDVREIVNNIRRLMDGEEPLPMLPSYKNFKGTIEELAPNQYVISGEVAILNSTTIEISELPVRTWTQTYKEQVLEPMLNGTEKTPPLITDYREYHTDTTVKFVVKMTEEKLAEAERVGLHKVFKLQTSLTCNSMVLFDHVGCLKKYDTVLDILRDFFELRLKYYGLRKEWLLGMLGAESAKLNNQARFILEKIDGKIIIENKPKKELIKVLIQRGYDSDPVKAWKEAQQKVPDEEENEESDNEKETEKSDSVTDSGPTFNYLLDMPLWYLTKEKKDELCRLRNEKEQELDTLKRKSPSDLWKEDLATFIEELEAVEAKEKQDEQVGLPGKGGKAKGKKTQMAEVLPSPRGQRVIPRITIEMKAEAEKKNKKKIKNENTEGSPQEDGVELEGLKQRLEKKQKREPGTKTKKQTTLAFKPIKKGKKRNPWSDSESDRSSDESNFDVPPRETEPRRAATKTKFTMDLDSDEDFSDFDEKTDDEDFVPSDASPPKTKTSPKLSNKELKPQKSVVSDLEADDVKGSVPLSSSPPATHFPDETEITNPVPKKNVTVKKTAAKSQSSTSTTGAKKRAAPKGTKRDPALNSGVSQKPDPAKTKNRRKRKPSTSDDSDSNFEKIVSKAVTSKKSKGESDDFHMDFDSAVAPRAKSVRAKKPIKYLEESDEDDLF
Procedure: Human topoisomerase IIα (TopoIIα) was obtained from TopoGEN, Inc. (Columbus, OH, USA). Proteinase K from Tritirachium album was obtained from Sigma-Aldrich, Inc. (St. Louis, MO, USA) and was dissolved in DNase free water. A TAE gel electrophoresis buffer was used in this assay.
The inhibitory effects of the derivatives on human TopoIIα were measured using a Eukaryotic Topoisomerase II Drug Screening Kit (TopoGEN, Inc.). All derivatives were dissolved in DMSO immediately prior to testing.
The substances were tested at a fixed concentration of 0.1 mM. […] Supercoiled plasmid DNA (pRYG, 200 ng) was incubated with human TopoIIα (10 U) at 37 °C for 30 min in relaxation buffers in the absence or presence of derivatives (final volume is 20 μL). The order of reagent addition was buffer, test derivative, Topo IIα and finally DNA.
The assay samples were analyzed by electrophoresis on a 1% agarose gel without EtdBr (25 V, 18 h, room temperature) in TAE buffer, followed by staining in 0.5 μg/mL of EtdBr to allow for observation of the DNA bands under UV light.

SMILES | IC50 ([2]; 72 h) | IC50 ([3]; 72 h) | other results
COc1cccc2c1C(=O)c1c(O)c3c(c(O)c1C2=O)C[C@@](O)(C(=O)CO)C[C@@H]3O[C@H]1C[C@H](N)[C@H](O)[C@H](C)O1 [DOXORUBICIN, doxorubicin, reference compound] |  |  | selectivity against cancer cells versus normal cells ([1]; ACP-03 versus MRC-5): no selectivity; IC50 [1]: 0.274 µM; IC50 ([2]; Homo sapiens, HCT-116, 72 h): 0.1 µM; IC50 ([3]; Homo sapiens, MDA-MB-231, 72 h): 0.43 µM; IC50 ([4]; MRC5): 0.2 µM; EC50 at 1 h [5]: > 200 µg/mL
O=C(NCc1ccc(Cl)cc1)c1c[nH]c2ccccc2c1=O [Derivative 10a, 4-Oxo-N'-(4-chlorobenzyl)-1,4-dihydroquinoline-3-carboxamide] | > 10 µM | > 10 µM | 
O=C(NCc1ccc(Cl)cc1)c1c[nH]c2ccc(Cl)cc2c1=O [Derivative 10b, 6-Chloro-4-oxo-N'-(4-chlorobenzyl)-1,4-dihydroquinoline-3-carboxamide] | > 10 µM | > 10 µM | 
O=C(NCc1ccc(Cl)cc1)c1c[nH]c2cc(Cl)ccc2c1=O [Derivative 10c, 7-Chloro-4-oxo-N'-(4-chlorobenzyl)-1,4-dihydroquinoline-3-carboxamide] | > 10 µM | > 10 µM | 
O=C(NC1CCCCC1)c1c[nH]c2ccccc2c1=O [Derivative 11a, 4-Oxo-N'-cyclohexyl-1,4-dihydroquinoline-3-carboxamide] | > 10 µM | > 10 µM | 
O=C(NC1CCCCC1)c1c[nH]c2ccc(Cl)cc2c1=O [Derivative 11b, 6-Chloro-4-oxo-N'-cyclohexyl-1,4-dihydroquinoline-3-carboxamide] | > 10 µM | > 10 µM | 
O=C(NC1CCCCC1)c1c[nH]c2cc(Cl)ccc2c1=O [Derivative 11c, 7-Chloro-4-oxo-N'-cyclohexyl-1,4-dihydroquinoline-3-carboxamide] | > 10 µM | > 10 µM | 
O=C(Nc1ccc(Cl)cc1)c1c[nH]c2ccccc2c1=O [Derivative 12a, 4-oxo-N'-(4-Chlorophenyl)-1,4-dihydroquinoline-3-carboxamide] | > 10 µM | > 10 µM | 
O=C(Nc1ccc(Cl)cc1)c1c[nH]c2ccc(Cl)cc2c1=O [Derivative 12b, 6-Chloro-4-oxo-N'-(4-chlorophenyl)-1,4-dihydroquinoline-3-carboxamide] | > 10 µM | > 10 µM | 
O=C(Nc1ccc(F)cc1)c1c[nH]c2ccccc2c1=O [Derivative 13a, 4-oxo-N'-(4-Fluorophenyl)-1,4-dihydroquinoline-3-carboxamide] | > 10 µM | > 10 µM | 
O=C(Nc1ccc(F)cc1)c1c[nH]c2cc(Cl)ccc2c1=O [Derivative 13b, 7-Chloro-4-oxo-N'-(4-fluorphenyl)-1,4-dihydroquinoline-3-carboxamide] | > 10 µM | > 10 µM | 
COc1ccc(NC(=O)c2c[nH]c3ccccc3c2=O)cc1 [Derivative 14a, 4-oxo-N'-(4-Methoxyphenyl)-1,4-dihydroquinoline-3-carboxamide] | > 10 µM | > 10 µM | 
COc1ccc(NC(=O)c2c[nH]c3cc(Cl)ccc3c2=O)cc1 [Derivative 14b, 7-Chloro-4-oxo-N'-(4-methoxyphenyl)-1,4-dihydroquinoline-3-carboxamide] | > 10 µM | > 10 µM | 
O=C(Nc1ccccc1)c1c[nH]c2ccccc2c1=O [Derivative 15a, 4-oxo-N'-Phenyl-1,4-dihydroquinoline-3-carboxamide] | > 10 µM | > 10 µM | 
O=C(Nc1ccccc1)c1c[nH]c2ccc(Cl)cc2c1=O [Derivative 15b, 6-Chloro-4-oxo-N'-phenyl-1,4-dihydroquinoline-3-carboxamide] | > 10 µM | > 10 µM | 
O=C(Nc1ccccc1)c1c[nH]c2cc(Cl)ccc2c1=O [Derivative 15c, 7-Chloro-4-oxo-N'-phenyl-1,4-dihydroquinoline-3-carboxamide] | > 10 µM | > 10 µM | 
Cc1ccc(NC(=O)c2c[nH]c3ccccc3c2=O)cc1 [Derivative 16a, 4-Oxo-N'-(p-tolyl)-1,4-dihydroquinoline-3-carboxamide] | > 10 µM | > 10 µM | 
Cc1ccc(NC(=O)c2c[nH]c3ccc(Cl)cc3c2=O)cc1 [Derivative 16b, 6-Chloro-4-oxo-N'-(p-tolyl)-1,4-dihydroquinoline-3-carboxamide] | > 10 µM | > 10 µM | IC50 [1]: 1.92 µM; cytotoxicity in normal fibroblasts [4]: did not display cytotoxicity; IC50 [4]: > 20 µM; hemolytical activity against blood cells (mouse erythrocytes): no hemolytical activity; inhibition of supercoiled DNA (pRYG) relaxation by topoisomerase II [6]: only the SC band is observed, which indicates topoisomerase inhibition
Cc1ccc(NC(=O)c2c[nH]c3cc(Cl)ccc3c2=O)cc1 [Derivative 16c, 7-Chloro-4-oxo-N'-(p-tolyl)-1,4-dihydroquinoline-3-carboxamide] | > 10 µM | > 10 µM | 
O=C(Nc1cc(Cl)ccc1Cl)c1c[nH]c2ccccc2c1=O [Derivative 17a, 4-Oxo-N'-(2,5-dichlorophenyl)-1,4-dihydroquinoline-3-carboxamide] | > 10 µM | > 10 µM | 
O=C(Nc1cc(Cl)ccc1Cl)c1c[nH]c2ccc(Cl)cc2c1=O [Derivative 17b, 6-Chloro-4-oxo-N'-(2,5-dichlorophenyl)-1,4-dihydroquinoline-3-carboxamide] | > 10 µM | > 10 µM | IC50 [1]: 5.18 µM; cytotoxicity in normal fibroblasts [4]: did not display cytotoxicity; IC50 [4]: > 20 µM; hemolytical activity against blood cells (mouse erythrocytes): no hemolytical activity; inhibition of supercoiled DNA (pRYG) relaxation by topoisomerase II [6]: only the SC band is observed, which indicates topoisomerase inhibition
O=C(Nc1cc(Cl)ccc1Cl)c1c[nH]c2cc(Cl)ccc2c1=O [Derivative 17c, 7-Chloro-4-oxo-N'-(2,5-dichlorophenyl)-1,4-dihydroquinoline-3-carboxamide] | > 10 µM | > 10 µM | 
COc1ccc(OC)c(NC(=O)c2c[nH]c3ccccc3c2=O)c1 [Derivative 18a, 4-Oxo-N'-(2,5-dimethoxyphenyl)-1,4-dihydroquinoline-3-carboxamide] | > 10 µM | > 10 µM | 
COc1ccc(OC)c(NC(=O)c2c[nH]c3ccc(Cl)cc3c2=O)c1 [Derivative 18b, 6-Chloro-4-oxo-N'-(2,5-dimethoxyphenyl)-1,4-dihydroquinoline-3-carboxamide] | > 10 µM | > 10 µM | 
COc1ccc(OC)c(NC(=O)c2c[nH]c3cc(Cl)ccc3c2=O)c1 [Derivative 18c, 7-Chloro-4-oxo-N'-(2,5-dimethoxyphenyl)-1,4-dihydroquinoline-3-carboxamide] | > 10 µM | > 10 µM | 
